Measurements: patent US11779600B2, “Methods of treating or preventing alzheimer's disease and associated conditions” (CEDARS-SINAI MEDICAL CENTER, priority 2016, dated 2023)

Test system: bone marrow-derived macrophages (MΦ^BM)
Assay: Fibrillar Aβ1-42 phagocytosis assay in bone marrow-derived macrophages
Assay type: cell-based, mouse
Procedure: Lyophilized non-fluoro amyloid-β1-42 peptide (#20276; Anaspec) was initially monomerized by dissolving it in ice-cold HFIP (hexafluoroisopropanol) (#52512; Sigma) to a final concentration of 1 mM and then aliquoted in sterile siliconized microcentrifuge tubes. The HFIP was first evaporated while in the sterile hood and then under vacuum conditions in a SpeedVac for 2 h to remove any trace of HFIP; the peptide film was stored at −20° C. until use. To induce fibril formation, fluoro (HiLyte647; #64161; Anaspec) and non-fluoro amyloid-β1-42 films were resuspended in media to which 10% of sterile NaOH 60 mM was first added and the media were vortexed for 30 s. Then, a sterile 45% H2O and a sterile 45% solution of 20 mM NaH2PO4+Na2HPO4 (pH 7.4) were added, and the media were vortexed again and incubated on a shaker for 2 weeks at 37° C. Pre-formed amyloid-β1-42 fibrils were then sonicated for 60 s and diluted to 100 nM using the same media prior to the phagocytosis assay.
To test amyloid-β phagocytosis by macrophage, in repeated experiments monocytes were isolated from the bone marrow of wild-type mice (n=18 mice) and differentiated into macro-phage by 7-day cultivation in complete RPMI-1640 medium (#21870; Life Technologies) with 10% serum and 20 ng/ml MCSF (#315-02; PeproTech). Bone marrow-derived macrophages (MΦBM) were generated from femurs and tibiae cultured for 6-7 days in complete RPMI 1640 medium (Life Technologies) with 10% FBS, 100 U/ml penicillin, 100 μg/ml streptomycin, 2 mM L-glutamine and 20 ng/ml MCSF (PeproTech). Primary cultures of macrophage were then plated at 1.2×10^5 cells per well (3-4 wells for each condition) in 24-well tissue-culture plates on glass cover-slips overnight. Next, macrophages were either treated with 30 μg/ml GA (Copaxone®; TEVA Neuroscience), Brefeldin A (BFA; Sigma, 1X), or 10 μM Minocycline (Sigma) for the duration of 1, 3, or 24 h, or not treated (control group). Before addition of fibrillar amyloid-β1-42, the cells were chilled in a 4° C. ice bath for 5 min; immediately after addition of the preformed fibrillar amyloid-β1-42 (100 nM), the plates were centrifuged at 515g in 25° C. followed by incubation at 37° C. for 30 or 60 min. The cells were then rinsed with amyloid-β-free medium to remove non-incorporated amyloid-β and later washed twice with PBS. Methanol (99.8%) at −20° C. for 20 min or 4% paraformaldehyde at room temperature for 12 min was used for fixation of the cells followed by repeated washes with PBS. […] The fluorescent signal and its total area were determined and quantified by the conversion of individual images to greyscale and standardizing to baseline using histogram-based thresholds with NIH ImageJ software. […]

In the case of glatiramer acetate [GA], the “increase of Aβ phagocytosis” value (24 hours treatment, then fAβ1-42 for 30 min, quantitative ICC (FIG. 16E)) is reported as 2.5 fold, the “increase of fibrillar Aβ1-42 uptake in MΦ^BM” value (GA pretreated, 100 nM fibrillar Aβ1-42 for 30 min, qICC and ELISA) is reported as 2.5-2.85 fold and the “rise in fAβ1-42 uptake” value (GA-treated MΦ (FIG. 5D)) is reported as 2.8 fold.
